The text below walks through data of patent US12344603B2 (Genentech, Inc., priority 2020, dated 2025).

As usually defined, the IC50 is the concentration that inhibits the measured activity by half.

The assay addresses IRE1α (Homo sapiens (Human), UniProt O75460, D688N). As to the kind of experiment: IRE1α TR-FRET competition binding assay (IRE1α HTRF). Particulars: TR-FRET competition binding to kinase domain of IRE1α. The gist of the method: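 Competition of compounds against an Alexa fluor 647 ATP-site probe (2 nM final) for the His-tagged kinase domain (0.25 nM final), detected via 2 nM Eu anti-His antibody by TR-FRET, 665 and 615 nm emission. Protein–antibody premix 1 h, 4° C; reaction 1 h, room temperature, pH 7.5 HEPES buffer.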
A general note: In TR-FRET formats the signal depends on donor and acceptor labels being close together.

Counter-ions that a name gives are not always drawn.

Sequence of IRE1α (O75460 547-977 D688N): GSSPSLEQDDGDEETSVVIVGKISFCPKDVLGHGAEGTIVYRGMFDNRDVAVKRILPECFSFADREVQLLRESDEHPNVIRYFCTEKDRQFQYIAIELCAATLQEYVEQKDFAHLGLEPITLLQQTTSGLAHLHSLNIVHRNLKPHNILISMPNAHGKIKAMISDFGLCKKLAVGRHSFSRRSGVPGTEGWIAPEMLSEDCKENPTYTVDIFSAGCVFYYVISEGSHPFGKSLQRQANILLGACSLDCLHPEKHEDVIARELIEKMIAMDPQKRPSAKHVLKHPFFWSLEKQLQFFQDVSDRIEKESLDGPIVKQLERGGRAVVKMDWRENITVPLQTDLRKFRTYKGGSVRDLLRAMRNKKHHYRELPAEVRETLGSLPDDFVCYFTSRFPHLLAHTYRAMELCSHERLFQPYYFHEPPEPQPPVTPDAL

Compound `Cc1ccc(CS(=O)(=O)Nc2c(F)cc(-c3cc4cnc(N[C@@H]5CNC[C@@H](F)C5)nc4n(C(C)C)c3=O)c(F)c2F)c(C#N)c1` [Compound 107, 1-(2-Cyano-4-methylphenyl)-N-(2,3,6-trifluoro-4-(2-(((3S,5S)-5-fluoropiperidin-3-yl)amino)-8-isopropyl-7-oxo-7,8-dihydropyrido[2,3-d]pyrimidin-6-yl)phenyl)methanesulfonamide] had a 50% inhibitory concentration (IC50) of 0.13 nM. The result for `COc1ccc(Cl)cc1CS(=O)(=O)Nc1c(F)cc(-c2cc3cnc(N[C@@H]4CNC[C@@H](F)C4)nc3n(C(C)C)c2=O)c(F)c1F` [Compound 97, 1-(5-Chloro-2-methoxyphenyl)-N-(2,3,6-trifluoro-4-(2-(((3S,5S)-5-fluoropiperidin-3-yl)amino)-8-isopropyl-7-oxo-7,8-dihydropyrido[2,3-d]pyrimidin-6-yl)phenyl)methanesulfonamide hydrochloride] reads 0.27 nM. The result for `CC(C)n1c(=O)c(-c2ccc(NS(=O)(=O)C3CCC(F)(F)CC3)c(F)c2)nc2cnc(N[C@H]3CC[C@H](N(C)C)CC3)nc21` [Example 280, N-[4-[2-[[4-(Dimethylamino)cyclohexyl]amino]-8-isopropyl-7-oxo-pteridin-6-yl]-2-fluoro-phenyl]-4,4-difluoro-cyclohexanesulfonamide] reads 0.2 nM; that for `CC(C)n1c(=O)c(-c2cc(F)c(NS(=O)(=O)Cc3ccccc3F)c(F)c2F)cc2cnc(N[C@H]3CNC[C@@H](O)C3)nc21` [Compound 88, 1-(2-Fluorophenyl)-N-(2,3,6-trifluoro-4-(2-(((3R,5S)-5-hydroxypiperidin-3-yl)amino)-8-isopropyl-7-oxo-7,8-dihydropyrido[2,3-d]pyrimidin-6-yl)phenyl)methanesulfonamide], 8.5 nM. Under `Cc1nc(NS(=O)(=O)c2ccccc2Cl)ccc1-c1nc2cnc(N[C@H]3CC[C@H](N(C)CCF)CC3)nc2n(C(C)C)c1=O` [Compound 195, 2-Chloro-N-(5-(2-(((1r,4r)-4-((2-fluoroethyl)(methyl)amino)cyclohexyl)amino)-8-isopropyl-7-oxo-7,8-dihydropteridin-6-yl)-6-methylpyridin-2-yl)benzenesulfonamide] stands 0.29 nM. As to `CC(C)n1c(=O)c(-c2cc(F)c(NS(=O)(=O)CCC(F)(F)F)c(F)c2)nc2cnc(N[C@H]3CC[C@H](N(C)C)[C@@H](F)C3)nc21` (stereo in doubt) [Compound 168A, N-(4-(2-((4-(Dimethylamino)-3-fluorocyclohexyl)amino)-8-isopropyl-7-oxo-7,8-dihydropteridin-6-yl)-2,6-difluorophenyl)-3,3,3-trifluoropropane-1-sulfonamide], the half-maximal inhibitory concentration (IC50) amounted to 0.24 nM. Compound `CC(C)n1c(=O)c(-c2ccc(NS(=O)(=O)CC3CCCC3)c(F)c2)nc2cnc(N[C@H]3CC[C@H](N(C)C)CC3)nc21` [Example 267, 1-Cyclopentyl-N-[4-[2-[[4-(dimethylamino)cyclohexyl]amino]-8-isopropyl-7-oxo-pteridin-6-yl]-2-fluoro-phenyl]methanesulfonamide] showed a half-inhibitory concentration (IC50) of 0.1 nM. Compound `CC(C)n1c(=O)c(-c2cc(F)c(NS(=O)(=O)Cc3ccccc3)c(F)c2F)nc2cnc(N[C@@H]3CNC[C@@H](F)C3)nc21` [Compound 185, 1-Phenyl-N-(2,3,6-trifluoro-4-(2-(((3S,5S)-5-fluoropiperidin-3-yl)amino)-8-isopropyl-7-oxo-7,8-dihydropteridin-6-yl)phenyl)methanesulfonamide] showed an IC50 of 0.17 nM. The result for `Cc1nc(NS(=O)(=O)CCC(F)(F)F)ccc1-c1nc2cnc(N[C@H]3CC[C@H](N(C)C)CC3)nc2n(C(C)C)c1=O` [Example 251, N-[5-[2-[[4-(Dimethylamino)cyclohexyl]amino]-8-isopropyl-7-oxo-pteridin-6-yl]-6-methyl-2-pyridyl]-3,3,3-trifluoro-propane-1-sulfonamide] reads 7 nM. The result for `CCn1c(=O)c(-c2cc(F)c(NS(=O)(=O)Cc3ccc(C(F)(F)F)cc3)c(F)c2F)cc2cnc(N[C@@H]3CNC[C@@H](F)C3)nc21` [Compound 50, N-(4-(8-ethyl-2-(((3S,5S)-5-fluoropiperidin-3-yl)amino)-7-oxo-7,8-dihydropyrido[2,3-d]pyrimidin-6-yl)-2,3,6-trifluorophenyl)-1-(4-(trifluoromethyl)phenyl)methanesulfonamide hydrochloride] reads 0.22 nM; that for `CC(C)n1c(=O)c(-c2cc(F)c(NS(=O)(=O)CC3(C(F)(F)F)CC3)c(F)c2)nc2cnc(N[C@H]3CC[C@H](N(C)C)CC3)nc21` [Example 240, N-[4-[2-[[4-(Dimethylamino)cyclohexyl]amino]-8-isopropyl-7-oxo-pteridin-6-yl]-2,6-difluoro-phenyl]-1-[1-(trifluoromethyl)cyclopropyl]methanesulfonamide], 0.1 nM. Under `CC(C)n1c(=O)c(-c2ccc(NS(=O)(=O)CCC(F)F)c(F)c2)nc2cnc(N[C@@H]3CNC[C@H](CF)C3)nc21` [Compound 78, 3,3-Difluoro-N-[2-fluoro-4-[2-[[(3S,5R)-5-(fluoromethyl)-3-piperidyl]amino]-8-isopropyl-7-oxo-pteridin-6-yl]phenyl]propane-1-sulfonamide] stands 1 nM; under `COCCN(CCOC)[C@H]1CC[C@H](Nc2ncc3cc(-c4ccc(NS(=O)(=O)CCC(F)(F)F)c(F)c4)c(=O)n(C(C)C)c3n2)CC1` [Compound 210, N-(4-(2-(((1,4-trans)-4-(Bis(2-methoxyethyl)amino)cyclohexyl)amino)-8-isopropyl-7-oxo-7,8-dihydropyrido[2,3-d]pyrimidin-6-yl)-2-fluorophenyl)-3,3,3-trifluoropropane-1-sulfonamide], 0.25 nM; under `CC(n1c(=O)c(-c2ccc(NS(=O)(=O)Cc3ccccc3)c(F)c2F)cc2cnc(N[C@@H]3CNC[C@@H](F)C3)nc21)C(F)(F)F` (stereo partly drawn) [Compound 42, N-(2,3-difluoro-4-(2-(((3S,5S)-5-fluoropiperidin-3-yl)amino)-7-oxo-8-(1,1,1-trifluoropropan-2-yl)-7,8-dihydropyrido[2,3-d]pyrimidin-6-yl)phenyl)-1-phenylmethanesulfonamide trifluoroacetate salt], 3.6 nM. `CC(C)n1c(=O)c(-c2cnc(NS(=O)(=O)CCC(F)(F)F)c(F)c2)cc2cnc(N[C@H]3CC[C@H](N(C)C)CC3)nc21` [Example 222, N-(5-(2-(((1r,4r)-4-(dimethylamino)cyclo-hexyl)amino)-8-isopropyl-7-oxo-7,8-dihydropyrido[2,3-d]-pyrimidin-6-yl)-3-fluoropyridin-2-yl)-3,3,3-trifluoropropane-1-sulfonamide] showed an IC50 of 0.3 nM. The result for `CC(C)n1c(=O)c(-c2ccc(NS(=O)(=O)CCC(F)(F)F)c(F)c2F)cc2cnc(N[C@H]3CC[C@H](N(C)C)CC3)nc21` [Compound 197, N-(4-(2-(((1,4-trans)-4-(Dimethylamino)cyclohexyl)amino)-8-isopropyl-7-oxo-7,8-dihydropyrido[2,3-d]pyrimidin-6-yl)-2,3-difluorophenyl)-3,3,3-trifluoropropane-1-sulfonamide] reads 0.26 nM.

`CC(C)n1c(=O)c(-c2ccc(NS(=O)(=O)CCC(F)(F)F)c(F)c2)cc2cnc(N[C@H]3CCC[C@H](N)C3)nc21` [Compound 103, N-(4-(2-(((1S,3S)-3-Aminocyclohexyl)amino)-8-isopropyl-7-oxo-7,8-dihydropyrido[2,3-d]pyrimidin-6-yl)-2-fluorophenyl)-3,3,3-trifluoropropane-1-sulfonamide]: the IC50 is 26 nM. Under “N-(2,3,6-trifluoro-4-(8-isopropyl-2-((4-((2-methoxyethyl)(methyl)amino)cyclohexyl)amino)-7-oxo-7,8-dihydropyrido[2,3-d]pyrimidin-6-yl)phenyl)propane-1-sulfonamide [Compound 101B]” stands 120 nM; under `CC(C)n1c(=O)c(-c2ccc(NS(=O)(=O)Cc3ccccc3F)nc2)cc2cnc(N[C@@H]3CNC[C@@H](F)C3)nc21` [Compound 93, 1-(2-Fluorophenyl)-N-(5-(2-(((3S,5S)-5-fluoropiperidin-3-yl)amino)-8-isopropyl-7-oxo-7,8-dihydropyrido[2,3-d]pyrimidin-6-yl)pyridin-2-yl)methanesulfonamide], 0.24 nM.

Regarding `CC(C)n1c(=O)c(-c2ccc(NS(=O)(=O)C3CCCC3)c(F)c2)cc2cnc(N[C@H]3CC[C@H](N(C)C)CC3)nc21` [Compound 134, N-(4-(2-(((1r,4r)-4-(Dimethylamino)cyclohexyl)amino)-8-isopropyl-7-oxo-7,8-dihydropyrido[2,3-d]pyrimidin-6-yl)-2-fluorophenyl)cyclopentanesulfonamide hydrochloride], the IC50 amounted to 0.19 nM.

As for `CC(C)n1c(=O)c(-c2ccc(NS(=O)(=O)CC3CC(F)(F)C3)c(F)c2)cc2cnc(N[C@H]3CC[C@H](N(C)C)CC3)nc21` [Compound 151, 1-(3,3-Difluorocyclobutyl)-N-(4-(2-(((1r,4r)-4-(dimethylamino)cyclohexyl)amino)-8-isopropyl-7-oxo-7,8-dihydropyrido[2,3-d]pyrimidin-6-yl)-2-fluorophenyl)methanesulfonamide], the IC50 was found to be 0.19 nM. Under `CC(C)n1c(=O)c(-c2ccc(NS(=O)(=O)CCC(F)(F)F)c(F)c2)cc2cnc(NC3CCN(C)CC3)nc21` [Compound 200, 3,3,3-Trifluoro-N-(2-fluoro-4-(8-isopropyl-2-((1-methylpiperidin-4-yl)amino)-7-oxo-7,8-dihydropyrido[2,3-d]pyrimidin-6-yl)phenyl)propane-1-sulfonamide formate] stands 20 nM. The result for `CC(C)n1c(=O)c(-c2ccc(NS(=O)(=O)Cc3ccccc3F)cn2)cc2cnc(N[C@@H]3CNC[C@@H](F)C3)nc21` [Compound 95, 1-(2-Fluorophenyl)-N-(6-(2-(((3S,5S)-5-fluoropiperidin-3-yl)amino)-8-isopropyl-7-oxo-7,8-dihydropyrido[2,3-d]pyrimidin-6-yl)pyridin-3-yl)methanesulfonamide] reads 0.46 nM.
